Consider 16 molecules from PubChem BioAssay (NCI).

Structures are written as SMILES.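 These data come from cells grown in 96-well plates and exposed to compound for 48 hours at five concentrations. Abbreviation: GI50, concentration required for 50% inhibition of growth. The concentration for full growth arrest is given as TGI.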 A value given as a limit tells only on which side of the number the result lay.

Common to all, as to experiment: inhibition of tumour cell growth, NCI panel, 48 h
In assay [1] the test system is SNB-75 CNS.
Assay [2] has as its system NCI-H226 lung.
For assay [3], the system named is NCI/ADR-RES ovarian.
Assay [4] concerns OVCAR-8 ovarian.
Assay [5] deals with COLO 205 colon.
The test system of assay [6] is CAKI-1 renal.
Assay [7] relates to PC-3 prostate.
The test system of assay [8] is K-562 leukemia.
Assay [9] deals with M14 melanoma.
Assay [10] has as its system MDA-MB-231 breast.

For the molecule `Nc1ccccc1-c1ccc([N+](=O)[O-])cc1`, the GI50 in assay [1] is over 100 µM; in assay [2] it was 33.6 µM; in assay [3], 26.2 µM; in [4] it was 63.4 µM; in assay [5] it was 10.7 µM; in assay [6] it was 1.71 µM. Moreover, the GI50 in assay [7] is 15 µM; in assay [8], 1.32 µM; in assay [9], 97.7 µM; in [10], 36.3 µM. For the same molecule, the TGI in [1] was over 100 µM; in [2], over 100 µM; in assay [3], over 100 µM; in assay [4], over 100 µM; in [5], 27.2 µM; in assay [6] it was over 100 µM. Also, the TGI in assay [7], in [8], in assay [9] and in assay [10] was over 100 µM each time.
As for `CC(C)c1c(C(=O)Nc2ccccc2)c(-c2ccccc2)c(-c2ccc(F)cc2)n1CC[C@@H]1CC=CC(=O)O1`, the GI50 was 1.43 µM in [1]; 1.71 µM in [2]; 2.46 µM in assay [3]; 2.23 µM in [4]; 1.68 µM in assay [5]; 1.6 µM in assay [6]. Further, the GI50 is 1.31 µM in assay [7], 0.422 µM in assay [8], 1 µM in assay [9] and 2.08 µM in [10]. Also, the TGI in assay [1] amounted to 2.78 µM; in assay [2] it was 3.26 µM; in assay [3] it was 6.09 µM; in assay [4], 5.23 µM; in [5], 3.5 µM; in assay [6], 3.45 µM. For the same molecule, the TGI in assay [7] amounted to 3.86 µM; in assay [8], 2.62 µM; in assay [9], 2.48 µM; in [10] it was 4.51 µM.
With `C=C(C)C1Cc2c(cc(OC)c3c(=O)c4cccc(O)c4oc23)O1` (stereo not given), the TGI in assay [1] was 29.9 µM; in assay [2], 44 µM; in [3] it was over 100 µM; in [4], 59.5 µM; in assay [5], over 100 µM; in assay [6] it was 30.2 µM. In addition, the TGI in assay [7] is over 100 µM; in assay [8], over 100 µM; in assay [9], 50.8 µM; in [10], 47.6 µM.
Take `CN(Cc1ccc(Cl)cc1)c1ccc(CO)c(Cl)c1`: the GI50 was 7.06 µM in [1]; 0.115 µM in assay [2]; 8 µM in assay [3]; 7.05 µM in [4]; 5.95 µM in [5]; 1.43 µM in assay [6]. Besides, the GI50 is 12.8 µM in assay [7], 3.79 µM in [8], 8.33 µM in assay [9] and 11 µM in [10]. In addition, the TGI in assay [1] worked out at 26.4 µM; in assay [2] it was 0.285 µM; in [3] it was 25.4 µM; in assay [4] it was 27.4 µM; in [5], 18.1 µM; in assay [6], 12 µM. Besides, the TGI in [7] was 31 µM; in assay [8], over 65.7 µM; in [9], 22.3 µM; in [10], 29.9 µM.
Turning to `N#Cc1ncc(-c2ccc(C(F)(F)F)cc2)c(NCc2cc(C(F)(F)F)cc(C(F)(F)F)c2)n1`, the GI50 in [1] was 3.19 µM; in assay [2], 4.85 µM; in assay [3], 3.23 µM; in [4], 3.69 µM; in assay [5] it was 2.24 µM; in assay [6] it was 3.6 µM. For the same molecule, the GI50 in assay [7] was 2.42 µM; in assay [8], 3.74 µM; in [9], 5.19 µM; in assay [10], 3.17 µM. Also, the TGI was 68.8 µM in [1]; over 100 µM in assay [2]; 65.8 µM in assay [3]; over 100 µM in assay [4]; 4.57 µM in assay [5]; 61.9 µM in assay [6]. The TGI in [7] is 8.48 µM; in [8], over 100 µM; in assay [9] it was over 100 µM; in [10] it was 12.6 µM.
Consider `N/C(=C\C(=O)n1nc(-c2ccccc2)cc1N)c1ccccc1`, for which the GI50 in assay [1] was 3.72 µM; in assay [2] it was 11.2 µM; in assay [3], 3.2 µM; in assay [4], 13.8 µM; in assay [5], 3.6 µM; in [6], 5.96 µM. Further, the GI50 in assay [7] was 4.35 µM; in assay [8] it was 2.06 µM; in assay [9], 3.13 µM; in assay [10], 11.3 µM. Besides, the TGI in assay [1] was 52.1 µM; in assay [2] it was 47.5 µM; in [3] it was over 100 µM; in assay [4] it was over 100 µM; in [5] it was 14.7 µM; in [6], 80.4 µM. Also, the TGI stood at 28.9 µM in assay [7], 24.4 µM in assay [8], 14.7 µM in assay [9] and 65.2 µM in [10].
Consider `COc1cc2c(cc1O)-c1c(cnn1-c1ccc([N+](=O)[O-])cc1)CCC2`, for which the TGI in assay [1] is over 100 µM; in [2] it was 47.5 µM; in [3] it was 42.7 µM; in assay [4] it was 50.3 µM; in assay [5] it was 38.1 µM; in [6], 38.5 µM. Besides, the TGI is 58.7 µM in assay [7], over 100 µM in assay [8], 49.6 µM in assay [9] and 33.2 µM in assay [10].
On to `CCOc1ccccc1NC(=O)c1cc2ccccc2cc1O`, for which the GI50 was 2.89 µM in assay [1]; 2.81 µM in assay [2]; 3.13 µM in assay [3]; 3.16 µM in [4]; 12.7 µM in assay [5]; 3.45 µM in [6]. Besides, the GI50 in [7] is 2.73 µM; in assay [8], 3.28 µM; in [9], 3.15 µM; in [10], 2.02 µM. Further, the TGI stood at 15.8 µM in [1]; 10.8 µM in [2]; 14.2 µM in assay [3]; 11.3 µM in assay [4]; 26.3 µM in assay [5]; 12.6 µM in [6]. The TGI amounted to 10.1 µM in [7], 14.1 µM in [8], 11 µM in assay [9] and 4.19 µM in assay [10].
In the case of `CCOC(=O)/C(=N\OC)C(O)C(F)(F)F` (stereo not given), the TGI in assay [1], in assay [2], in assay [3], in assay [4], in [5] and in assay [6] was over 100 µM each time. The TGI in assay [7], in [8], in [9] and in assay [10] was over 100 µM throughout.
Consider `Clc1cc2c(cc1Cl)Oc1cc(Cl)c(Cl)cc1O2`, for which the GI50 in [1] is 0.304 µM; in assay [2] it was over 0.625 µM; in [3], over 0.625 µM; in assay [4], over 0.625 µM; in [5], over 0.625 µM; in assay [6], over 0.625 µM. Further, the GI50 in [7], in assay [8], in assay [9] and in [10] was over 0.625 µM in each case. For the same molecule, the TGI in assay [1], in [2], in [3], in assay [4], in assay [5] and in assay [6] was over 0.625 µM throughout. For the same molecule, the TGI in assay [7], in assay [8], in [9] and in assay [10] was over 0.625 µM each time.
Take `COC(=O)C1=C(C)NC(C)=C(C(=O)OC)C1/C=C(\Cl)c1ccc(Cl)c(Cl)c1`: the GI50 in [1] is 8.25 µM; in [2], 15.8 µM; in assay [3], 16.4 µM; in assay [4], 36.1 µM; in assay [5], 17.9 µM; in assay [6], 13.7 µM. Further, the GI50 in assay [7] was 10.8 µM; in assay [8], 10.6 µM; in assay [9], 16.6 µM; in assay [10], 11.9 µM. Moreover, the TGI in assay [1] was 22.9 µM; in assay [2] it was 38.2 µM; in assay [3], 30.8 µM; in assay [4], over 100 µM; in assay [5] it was 43.2 µM; in assay [6], 27.2 µM. Moreover, the TGI in [7] was 23.1 µM; in assay [8] it was 40.3 µM; in [9] it was 30.2 µM; in [10] it was 25.3 µM.
With `COc1cc(-n2cc(-c3ccc(F)cc3)nc2SCc2ccccc2)cc(OC)c1OC`, the GI50 in assay [1], in assay [2], in assay [3], in assay [4], in assay [5] and in [6] was over 100 µM throughout. Moreover, the GI50 in assay [7] was 9.48 µM; in assay [8], 8.1 µM; in assay [9], over 100 µM; in assay [10], over 100 µM. Besides, the TGI in [1], in assay [2], in assay [3], in assay [4], in [5] and in assay [6] was over 100 µM each time. Moreover, the TGI in [7], in assay [8], in assay [9] and in [10] was over 100 µM throughout.
Take `O=C1CC(c2cccc(O)c2)C2(C(=O)NC(=S)NC2=O)C(c2cccc(O)c2)C1` (stereo not given): the GI50 in assay [1], in assay [2], in assay [3], in [4], in [5] and in [6] was over 100 µM throughout. Besides, the GI50 in assay [7], in assay [8], in assay [9] and in assay [10] was over 100 µM throughout. Further, the TGI in [1], in [2], in assay [3], in assay [4], in [5] and in [6] was over 100 µM each time. Further, the TGI in assay [7], in assay [8], in assay [9] and in [10] was over 100 µM in each case.
`Oc1ccc(CN2CCC(N3CCOCC3)CC2)c2cccnc12`: the GI50 in assay [1] is 11.9 µM; in [2] it was 41.4 µM; in assay [3] it was 29.2 µM; in [4], 34.3 µM; in assay [5] it was 49.8 µM; in [6], 29.2 µM. The GI50 in assay [7] was 46.2 µM; in assay [8], 28.1 µM; in assay [9], 26.9 µM; in assay [10], 47.9 µM. The TGI in assay [1], in assay [2], in assay [3], in assay [4], in [5] and in assay [6] was over 100 µM each time. For the same molecule, the TGI in assay [7], in assay [8], in assay [9] and in [10] was over 100 µM throughout.
As for `Nc1nc(N)c(Cn2ccnc2)c(=O)[nH]1`, the TGI in assay [1], in assay [2], in assay [3], in assay [4], in assay [5] and in assay [6] was over 100 µM each time. Also, the TGI in assay [7], in [8], in assay [9] and in assay [10] was over 100 µM each time.
For the molecule `CCCCCc1nc2c(c3c1CCCC3)CCCC2`, the GI50 in [1] is 13.3 µM; in assay [2], 9.57 µM; in assay [3], 3.91 µM; in assay [4], 10.1 µM; in [5], 10.2 µM; in [6], 3.98 µM. In addition, the GI50 in assay [7] was 8.04 µM; in [8] it was 4.76 µM; in [9], 12.9 µM; in assay [10], 11 µM. Further, the TGI in [1] came out at 51.7 µM; in assay [2], 25.6 µM; in assay [3], 22.6 µM; in assay [4] it was 36.9 µM; in [5] it was 22.1 µM; in [6], 24 µM. Moreover, the TGI is 31.1 µM in assay [7], 27.9 µM in assay [8], 29.4 µM in assay [9] and 26.2 µM in assay [10].
